“Also recorded” adds a separate entry of the source. Where no end group is shown, it is not given here.
Assays:
Format in all cases: in vivo, C57b1/6 mice
crypt cells [1] = assay: Brd-U immunohistochemical staining for proliferation of crypt cells after gamma ray irradiation
Experimental: (§1) 8-week-old C57b1/6 mice (Central Lab Animal Inc., Seoul, Korea) were irradiated with gamma rays to establish an animal model of gastrointestinal damage, and gastrointestinal protective and regenerative effects of Substance-P were then examined.
(§2) For this purpose, C57b1/6 mice were divided into two groups, an experimental group and a control group, each consisting of 5 animals (n=5). 100 nM of Substance-P (Cat. No. 05-23-0600, Calbiochem) was injected to the experimental group mice via tail vein, 24 hours prior to gamma ray irradiation. 24 hours later, animals were irradiated with a gamma irradiator at a dose of 7.6 Gy. Immediately after gamma ray irradiation, 100 nM of Substance-P was intravenously injected once more into animals of the experimental group. The control group was given PBS.
(§3) Small intestines were isolated and fixed in a 3.7% formaldehyde solution for tissue fixation, for 1 to 2 days. Following the tissue processing process, the tissues were hardened in a paraffin block. The formalin-fixed paraffin tissues were sectioned to a 5 μm thickness using a microtome and then attached to a coated slide glass which was then dried, followed by TUNEL staining, Brd-U immunostaining and H&E staining. For Brd-U immunostaining, 2 hours prior to sacrifice of mice, 50 mg/kg of 5-bromo-2-deoxyuridine (Brd-U, Cat. No. B-9285, Sigma) was introduced into dividing cells by peritoneal injection.
Proliferative effects of Substance-P on crypt cells were examined by Brd-U immunohistochemical staining.
The tissue section slide was deparaffinized with xylene and hydrated in alcohol. The tissue section was pretreated with 2N HCl for 30 min, and endogenous peroxidase activity was blocked with addition of H2O2 for 10 min. The tissue section was treated with 0.3% Triton X-100 for 5 min to increase cell permeability. Then, 2% serum in a Vector ABC kit (PK-6100, Vector Laboratories Inc.) was added to block the cells. BrdU antibodies (Cat. No. 1 170 376, Roche Molecular Biochemicals) and 2% serum were diluted in a ratio of 6:100, followed by reaction at room temperature for 1 hour. […]

crypt cells [2] = assay: TUNEL assay for apoptosis of crypt cells after gamma ray irradiation
Experimental: as §1, §2
4.5 hours, 3 days, and 7 days later, mice of each group were euthanized by CO2 asphyxiation and then received abdominal incision. […]
Dead cells were detected by fluorescence labeling of damaged DNA molecules through TUNEL assay using an In Situ Cell Death Detection Kit (Cat. No. 1 684 795, Roche Molecular Biochemicals).
The tissue section slide was deparaffinized with xylene and hydrated in alcohol. […] Nuclear staining was carried out using 4′,6-diamidino-2-phenylindole (DAPI, Cat. No. D-9542, Sigma) and the stained tissue was examined in a green field of 515 to 565 nm under a fluorescence microscope.

[3] = system: crypt cells and villi of small intestine; assay: H&E staining: crypt cell counts and villous heights after gamma ray irradiation
Experimental: as §1, §2
as §3, with “4.5 hours, 3 days, and 7 days later, mice of each group were euthanized by CO2 asphyxiation and then received abdominal incision. Small” for “Small”
After the tissue section slide was H&E-stained and photographed, crypt cell counts and villous heights were measured and averaged, respectively.

[4] = radiation-induced gastrointestinal damage in mice, vs non-treated control group

## Substance-P (RPKPQQFFGLM-NH2; ends and bridges not checked; UniProt P20366 58-68, looked up) [11-amino acid neuropeptide; Cat. No. 05-23-0600, Calbiochem]
Crypt cells [1]; Day 1 after gamma ray irradiation, with vs without Substance-P
  BrdU staining of dividing crypt cells: no significant difference in staining of cells
Crypt cells [1]; Day 3 after gamma ray irradiation
  BrdU staining of dividing crypt cells: intense staining in large numbers of cells
Crypt cells [1]; after gamma ray irradiation (FIG. 2)
  gastrointestinal recovery through crypt hyperplasia, conclusion from BrdU staining: earlier gastrointestinal recovery
Crypt cells [2]; 4.5 hours after 7.6 Gy gamma rays, Substance-P 100 nM i.v. 24 h before and immediately after irradiation, vs control group (PBS)
  apoptosis of crypt stem cells (TUNEL): significant reduction in apoptosis of crypt stem cells
Crypt cells [2]; [4]
  apoptotic rate of crypt cells, summary statement: significantly lower apoptotic rate of crypt cells; also recorded: apoptosis of stem cells is decreased
[3]; Day 3 after irradiation, vs group without Substance-P
  villous atrophy (villous height): less villous atrophy
[3]; Days 1, 3 and 7 after irradiation (FIG. 3), vs group without Substance-P
  number of viable crypt cells (crypt cell survival): higher number of viable crypt cells
[3]; [4]
  recovery of damaged crypt cells and villi / recovery time from gastrointestinal damage, summary statement: faster recovery of damaged crypt cells and villi to a normal state; also recorded: recovery time from gastrointestinal damage is also shortened
